Columns and labels:
[1] = system: DsRed-express-labeled E. coli RP437; assay: Confocal imaging of E. coli biofilms on stainless steel coupons (COMSTAT); assay type: cell-based, Escherichia coli; details: 200 μM, 24 h at 37° C., CLSM/COMSTAT
Description: The effects of SHLs upon the bacterial biofilm were examined; more specifically, the effect of SHLs upon the biofilm architecture. […] These studies were conducted by static biofilm assays employing crystal violet staining that indicates the total biomass that resides within a biofilm but provides no indication regarding the topology of the biofilms. To elucidate the topological features assumed by the E. coli RP437 biofilm in the presence of SHLs and BF8 48, studies of biofilms consisting of DsRed-express-labeled E. coli RP437 that is fluorescent and can be easily visualized by confocal laser scanning microscopy (CLSM) were performed. […] Further, the stacked images in vinyl-SHL 3 indicating the maximum thickness of the biofilm is considerably smaller than the biofilms in BF8 48 and the untreated E. coli samples. We developed the biofilms consisting of DsRed-express-labeled E. coli on stainless steel coupons (316 L, 1 in×1 in.) for 24 h at 37° C. that were treated with BF8 48 or SHLs or were left untreated. All the samples were analyzed with CLSM (see FIG. 8) and the maximum thickness of biofilms calculated using the COMSTAT software. […] Moreover, butyl-SHL 8 and butoxy-SCPA 46 reduce the biofilm thickness by 38% and 27%, respectively.
An overnight culture of E. coli RP437 pRSH103 grown in LB media (OD600 of 1.0) containing tetracycline (3 μg/mL) was subsequently sub-cultured to an OD600 of 0.04 (1:100 dilution with LB media). To each well in the solvent resistant polypropylene or polystyrene-based 24-well microtiter plates was added 200 μM synthetic molecules in DMSO solution respectively. In addition, to each of the wells containing the known concentrations of synthetic molecules was added 2 mL of the sub-cultured bacteria and the contents in each well were gently mixed. […] The fluorescent emission was detected with a LP 560 nm emission filter. The coupons were gently placed upside down on a microscope cover glass (24×60 mm, No. 2, VWR International LLC, West Chester, Pa., USA) and analyzed with CLSM. […]

[2] = system: SK-N-SH cells; assay: Human neuroblastoma cancer cell cytotoxicity assay (CCK-8); assay type: cell-based; details: 200 or 300 μM, 1 h exposure, read after 24 h
Description: After examining the efficacy of SHLs at inhibiting biofilm, dispersing established biofilms, and reducing the maximum thickness of biofilms without being toxic to the planktonic bacterial cells, we tested the cytotoxicity of the key potent SHLs on the human neuroblastoma cancer cell line SK-N-SH. These studies were conducted such that the SK-N-SH cells were subjected to the maximum concentrations of the key potent SHLs tested on bacteria.
A previously grown T-flask of SK-N-SH cells was observed under a microscope to confirm the confluence of the cells. Next, the old media was discarded and the adherent cells were washed with ˜10 mL of MEM(−). The wash was discarded and 2 mL of Trypsin-EDTA solution was added to the T-flask and incubated for 10 minutes at 37° C. and at 5% atmosphere of CO2. Afterwards, the flask was viewed under a microscope to determine if the cells were suspended in the solution. Subsequently, ˜8 mL of MEM(+) was added to the flask and carefully mixed via pipette to break-up any large clusters of cells. 100 μL of the culture was added to an Eppendorf tube and combined with 100 μL of […]. A hemocytometer and glass cover slide was carefully cleaned with a kimwipe and ethanol. Placing the glass cover slide on top of the hemocytometer, 10 μL of the mixture in the Eppendorf tube was pipetted into the two grooves on the hemocytometer, avoiding the generation of bubbles. The hemocytometer was viewed one chamber at time under a microscope and the live cells were counted using the hemocytometer cell counting method. The remaining cell culture in the T-flask was diluted with MEM(+) to 25 mL such that there would be ˜5000 cells/mL. 100 μL of the culture was placed into wells on a 96 well plate such that one column had only MEM(+) and the wells on the outer perimeter of the plate were left empty. Four plates were made in this manner so that there would be plates for times 0, 24, 48, and 72 h. The plate was then incubated for 24 h at 37° C. and at 5% atmosphere of CO2. Subsequently, the old media was discarded and the wells were subjected to either 200 μM or 300 μM solutions of compounds 3, 4, 8, and 46 in MEM(+) (100 μL) such that one column still contained only MEM(+) and one column contained MEM(+) and untreated cells. The plate was incubated for 1 h and then the solutions were discarded and fresh MEM(+) media was added (100 μL). Each plate was then incubated for the desired time (0, 24, 48, or 72 h). After incubation, 10 μL of CCK-8 solution was added to each well and then the plate was incubated for 2 h followed by reading the OD450 with a microplate reader.

Row | Structure (SMILES) | reduction of the maximum thickness of biofilm [1] | cytotoxicity on human neuroblastoma cancer cells (in words) [2]
1 | CC1=C(Br)/C(=C/Br)OC1=O [BF8 48, reference compound] | 17% | –
2 | CCCCOc1c(NC2CCCC2)c(=O)c1=O [butoxy-SCPA 46] | 27% | toxic
3 | C=Cc1c(NC2CCOC2=O)c(=O)c1=O (stereo not shown) [vinyl-SHL 3] | – | toxic

— patent US8940911B2, “Squarylated lactones inhibitors for bacterial biofilm formation” (Syracuse University, priority 2012, dated 2015)
